Results reported in patent publication US20240209028A1, “CNP COMPOUNDS” (priority 2022, published 2024).
Like-named read-outs stand apart in the source and are kept apart here. Starred links: 1 amine or outer side, 2 acyl side, 3 side chain; linkers in the order of their positions; H or OH if unused. Positions of bridges follow the written chain, without caps; N, C: chain ends. Residues, ends and D or L forms follow the SMILES beside them. *: point of attachment. C18 diacid = O=C(O)CCCCCCCCCCCCCCCCC(=O)*; γGlu = O=C(O)[C@H](CCC(=O)[*:2])N[*:1]; AEEA = NCCOCCOCC(=O)O

Experiments:
[1] = High-Molecular-Weight-Protein (HMWP) formation by SEC-UPLC; assay type: physicochemical; conditions: increase over two weeks at 37° C., pH 6.5
Procedure: In order to assess the propensity of CNP compounds to form covalent dimers or oligomers when formulated the High-Molecular-Weight-Protein content of CNP compound formulations at pH 4.0 and 6.5 were determined.
Procedure: The relative amount of covalent HMWP was assessed using SEC-UPLC. SEC-UPLC was conducted using a Waters UPLC Protein BEH SEC column, 125A, 4.6×150 mm, 1.7 μm, with isocratic elution (0.3 M NaCl, 10 mM NaH2PO4 and 5 mM H3PO4, 50% (v/v) isopropanol, pH 2.4) with a flow rate of 0.3 mL/min, a column temperature at 50° C. with UV-detection at 215 nm. The total area of peaks eluting prior to the monomeric main peak was termed HMWP and given on a percentage scale relative to the total peptide peak area.
(§1) Results: HMWP Formation Following 2-Weeks Quiescent Incubation at 37° C.: Samples at pH 4.0 were prepared as described in Example 5 and the amount of HMWP was determined as described above. Samples were incubated for two weeks at 37° C. and the amount of HMWP was determined again. The increase in HMWP over two weeks incubation at 37° C. are reported in Table 10 (in case the incubation period deviated from two weeks the increase in HMWP was normalized to two weeks assuming a constant formation rate).
as §1, with “Samples” for “Results: HMWP Formation Following 2-Weeks Quiescent Incubation at 37° C.: Samples”, “6.5” for “4.0”, “11” for “10”

[2] = PK of CNP compounds after i.v. and s.c. administration to rats; conditions: male, Sprague Dawley, in vivo, rat; for clearance: read-out: Cl (L/hr/kg), i.v. administration (converted)
In short: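 Plasma exposure was quantified by protein precipitation and turboflow LC-MS/MS in SRM mode. Rats received either 100 nmol/kg intravenously or 300 nmol/kg subcutaneously, with sublingual blood taken at baseline and at points up to 72 h. Per-animal NCA gave clearance as Dose/AUCinf, and results are averaged over 4-6 animals.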

[3] = iv, i.v., about 100 nmol/kg, read-out: T½ (hr), i.v. administration (converted)

| Compound | 2-Week HMWP formation at pH 6.5 (%), % relative to total peak area [1] [%] | clearance ([2]; iv, i.v., about 100 nmol/kg) [L/h/kg] | half-life [2, 3] [h] | bioavailability ([2]; sc, s.c. bioavailability, about 300 nmol/kg, read-out: F (%), s.c. administration) [%] | half-life ([2]; sc, s.c., about 300 nmol/kg, read-out: T½ (hr), s.c. administration (converted)) [h] |
| --- | --- | --- | --- | --- | --- |
| CC[C@H](C)[C@@H]1NC(=O)[C@H](CCCNC(=N)N)NC(=O)[C@H](CC(=O)O)NC(=O)[C@H](CC(C)C)NC(=O)[C@@H]2CCCN2C(=O)[C@H](CC(C)C)NC(=O)CNC(=O)[C@H](Cc2ccccc2)NC(=O)[C@@H](NC(=O)CNC(=O)[C@H](CCC(N)=O)NC(=O)[C@H](CO)NC(=O)[C@H](CC(C)C)NC(=O)CNC(=O)[C@H](CCCCN)NC(=O)[C@H](CCCCN)NC(=O)[C@H](CCC(N)=O)NC(=O)[C@H](C)NC(=O)CNC(=O)[C@H](CCCCN)NC(=O)[C@H](Cc2ccc(O)cc2)NC(=O)[C@H](CCCCN)NC(=O)[C@H](CCCNC(=N)N)NC(=O)[C@H](C)NC(=O)[C@H](CCC(N)=O)NC(=O)[C@@H]2CCCN2C(=O)[C@H](Cc2c[nH]cn2)NC(=O)[C@H](CCC(=O)O)NC(=O)[C@H](CCC(N)=O)NC(=O)COCCOCCNC(=O)COCCOCCNC(=O)COCCOCCNC(=O)COCCOCCNC(=O)CC[C@H](NC(=O)CC[C@H](NC(=O)CC[C@H](NC(=O)CC[C@H](NC(=O)CC[C@H](NC(=O)CCCCCCCCCCCCCCCCC(=O)O)C(=O)O)C(=O)O)C(=O)O)C(=O)O)C(=O)O)CSSC[C@@H](C(=O)O)NC(=O)CNC(=O)[C@H](CC(C)C)NC(=O)CNC(=O)[C@H](CO)NC(=O)[C@H](CC(C)C)NC(=O)[C@H](CO)NC(=O)CNC1=O [compound 1406] ({C18 diacid-γGlu-γGlu-γGlu-γGlu-γGlu-AEEA-AEEA-AEEA-AEEA}-QEHPQARKYKGAQKKGLSQGCFGLPLDRIGSLSGLGC-OH; disulfide 21-37) | 2.77 |  |  |  |  |
| CC[C@H](C)[C@@H]1NC(=O)[C@H](CCCNC(=N)N)NC(=O)[C@H](CCC(=O)O)NC(=O)[C@H](CC(C)C)NC(=O)[C@@H]2CCCN2C(=O)[C@H](CC(C)C)NC(=O)CNC(=O)[C@H](Cc2ccccc2)NC(=O)[C@@H](NC(=O)CNC(=O)[C@H](CCC(N)=O)NC(=O)[C@H](CO)NC(=O)[C@H](CC(C)C)NC(=O)CNC(=O)[C@H](CCCCN)NC(=O)[C@H](CCCCN)NC(=O)[C@H](CCC(N)=O)NC(=O)[C@H](C)NC(=O)CNC(=O)[C@H](CCCCN)NC(=O)[C@H](Cc2ccc(O)cc2)NC(=O)[C@H](CCCCN)NC(=O)[C@H](CCCNC(=N)N)NC(=O)[C@H](C)NC(=O)COCCOCCNC(=O)COCCOCCNC(=O)COCCOCCNC(=O)COCCOCCNC(=O)CC[C@H](NC(=O)CC[C@H](NC(=O)CC[C@H](NC(=O)CC[C@H](NC(=O)CC[C@H](NC(=O)CCCCCCCCCCCCCCCCC(=O)O)C(=O)O)C(=O)O)C(=O)O)C(=O)O)C(=O)O)CSSC[C@@H](C(=O)O)NC(=O)CNC(=O)[C@H](CC(C)C)NC(=O)CNC(=O)[C@H](CO)NC(=O)[C@H](CC(C)C)NC(=O)[C@H](CO)NC(=O)CNC1=O [compound 1477] ({C18 diacid-γGlu-γGlu-γGlu-γGlu-γGlu-AEEA-AEEA-AEEA-AEEA}-ARKYKGAQKKGLSQGCFGLPLERIGSLSGLGC-OH; disulfide 16-32) | 1.83 |  |  |  |  |
| CC[C@H](C)[C@@H]1NC(=O)[C@H](CCCNC(=N)N)NC(=O)[C@H](CC(=O)O)NC(=O)[C@H](CC(C)C)NC(=O)[C@@H]2CCCN2C(=O)[C@H](CC(C)C)NC(=O)CNC(=O)[C@H](Cc2ccccc2)NC(=O)[C@@H](NC(=O)CNC(=O)[C@H](CO)NC(=O)[C@H](CO)NC(=O)[C@H](CC(C)C)NC(=O)CNC(=O)[C@H](CCCCN)NC(=O)[C@H](CCCCN)NC(=O)[C@H](CCC(N)=O)NC(=O)[C@H](C)NC(=O)CNC(=O)[C@H](CCCCN)NC(=O)[C@H](Cc2ccc(O)cc2)NC(=O)COCCOCCNC(=O)COCCOCCNC(=O)CC[C@H](NC(=O)CCCCCCCCCCCCCCCCC(=O)O)C(=O)O)CSSC[C@@H](C(=O)O)NC(=O)CNC(=O)[C@H](CC(C)C)NC(=O)CNC(=O)[C@H](CO)NC(=O)[C@H](CC(C)C)NC(=O)[C@H](CO)NC(=O)CNC1=O [compound 1233] ({C18 diacid-γGlu-AEEA-AEEA}-YKGAQKKGLSSGCFGLPLDRIGSLSGLGC-OH; disulfide 13-29) |  | 0.0246 | 1.42 | 33.8 | 3.57 |
| CC[C@H](C)[C@@H]1NC(=O)[C@H](CCCNC(=N)N)NC(=O)[C@H](CC(=O)O)NC(=O)[C@H](CC(C)C)NC(=O)[C@@H]2CCCN2C(=O)[C@H](CC(C)C)NC(=O)CNC(=O)[C@H](Cc2ccccc2)NC(=O)[C@@H](NC(=O)CNC(=O)[C@H](CCCCN)NC(=O)[C@H](CO)NC(=O)[C@H](CC(C)C)NC(=O)CNC(=O)[C@H](CCCCN)NC(=O)[C@H](CCCCN)NC(=O)[C@H](CCC(N)=O)NC(=O)[C@H](C)NC(=O)CNC(=O)[C@H](CCC(=O)O)NC(=O)[C@H](Cc2ccc(O)cc2)NC(=O)COCCOCCNC(=O)COCCOCCNC(=O)COCCOCCNC(=O)COCCOCCNC(=O)CC[C@H](NC(=O)CCCCCCCCCCCCCCCCC(=O)O)C(=O)O)CSSC[C@@H](C(=O)O)NC(=O)CNC(=O)[C@H](CC(C)C)NC(=O)CNC(=O)[C@H](CO)NC(=O)[C@H](CC(C)C)NC(=O)[C@H](CO)NC(=O)CNC1=O [compound 1375] ({C18 diacid-γGlu-AEEA-AEEA-AEEA-AEEA}-YEGAQKKGLSKGCFGLPLDRIGSLSGLGC-OH; disulfide 13-29; C-terminus assumed) |  | 0.0057 | 9.66 |  |  |
| CC[C@H](C)[C@@H]1NC(=O)[C@H](CCCNC(=N)N)NC(=O)[C@H](CC(=O)O)NC(=O)[C@H](CC(C)C)NC(=O)[C@@H]2CCCN2C(=O)[C@H](CC(C)C)NC(=O)CNC(=O)[C@H](Cc2ccccc2)NC(=O)[C@@H](NC(=O)CNC(=O)[C@H](CO)NC(=O)[C@H](CO)NC(=O)[C@H](CC(C)C)NC(=O)CNC(=O)[C@H](CCCCN)NC(=O)[C@H](CCCCN)NC(=O)[C@H](CCC(N)=O)NC(=O)[C@H](C)NC(=O)CNC(=O)[C@H](CCC(=O)O)NC(=O)[C@H](Cc2ccc(O)cc2)NC(=O)[C@H](CO)NC(=O)[C@H](CCCNC(=N)N)NC(=O)[C@H](C)NC(=O)[C@H](CCC(N)=O)NC(=O)[C@@H]2CCCN2C(=O)[C@H](Cc2c[nH]cn2)NC(=O)[C@H](CCC(=O)O)NC(=O)[C@H](CCC(N)=O)NC(=O)COCCOCCNC(=O)COCCOCCNC(=O)CC[C@H](NC(=O)CCCCCCCCCCCCCCCCC(=O)O)C(=O)O)CSSC[C@@H](C(=O)O)NC(=O)CNC(=O)[C@H](CC(C)C)NC(=O)CNC(=O)[C@H](CO)NC(=O)[C@H](CC(C)C)NC(=O)[C@H](CO)NC(=O)CNC1=O [compound 1379] ({C18 diacid-γGlu-AEEA-AEEA}-QEHPQARSYEGAQKKGLSSGCFGLPLDRIGSLSGLGC-OH; disulfide 21-37; C-terminus assumed) |  | 0.0051 | 9.8 |  |  |
| CC[C@H](C)[C@@H]1NC(=O)[C@H](CCCNC(=N)N)NC(=O)[C@H](CC(=O)O)NC(=O)[C@H](CC(C)C)NC(=O)[C@@H]2CCCN2C(=O)[C@H](CC(C)C)NC(=O)CNC(=O)[C@H](Cc2ccccc2)NC(=O)[C@@H](NC(=O)CNC(=O)[C@H](CO)NC(=O)[C@H](CO)NC(=O)[C@H](CC(C)C)NC(=O)CNC(=O)[C@H](CCCCN)NC(=O)[C@H](CCCCN)NC(=O)[C@H](CCC(N)=O)NC(=O)[C@H](C)NC(=O)CNC(=O)[C@H](CCCCN)NC(=O)[C@H](Cc2ccc(O)cc2)NC(=O)COCCOCCNC(=O)COCCOCCNC(=O)COCCOCCNC(=O)CC[C@H](NC(=O)CC[C@H](NC(=O)CCCCCCCCCCCCCCCCC(=O)O)C(=O)O)C(=O)O)CSSC[C@@H](C(=O)O)NC(=O)CNC(=O)[C@H](CC(C)C)NC(=O)CNC(=O)[C@H](CO)NC(=O)[C@H](CC(C)C)NC(=O)[C@H](CO)NC(=O)CNC1=O [compound 1356] ({C18 diacid-γGlu-γGlu-AEEA-AEEA-AEEA}-YKGAQKKGLSSGCFGLPLDRIGSLSGLGC-OH; disulfide 13-29; C-terminus assumed) |  | 0.0141 | 3.47 |  |  |
| CC[C@H](C)[C@@H]1NC(=O)[C@H](CCCNC(=N)N)NC(=O)[C@H](CC(=O)O)NC(=O)[C@H](CC(C)C)NC(=O)[C@@H]2CCCN2C(=O)[C@H](CC(C)C)NC(=O)CNC(=O)[C@H](Cc2ccccc2)NC(=O)[C@@H](NC(=O)CNC(=O)[C@H](CO)NC(=O)[C@H](CO)NC(=O)[C@H](CC(C)C)NC(=O)CNC(=O)[C@H](CCCCN)NC(=O)[C@H](CCCCN)NC(=O)[C@H](CCC(N)=O)NC(=O)[C@H](C)NC(=O)CNC(=O)[C@H](CCCCN)NC(=O)[C@H](Cc2ccc(O)cc2)NC(=O)[C@H](CCCCN)NC(=O)[C@H](CCCNC(=N)N)NC(=O)[C@H](C)NC(=O)CC[C@H](NC(=O)CC[C@H](NC(=O)CC[C@H](NC(=O)CC[C@H](NC(=O)CCCCCCCCCCCCCCCCC(=O)O)C(=O)O)C(=O)O)C(=O)O)C(=O)O)CSSC[C@@H](C(=O)O)NC(=O)CNC(=O)[C@H](CC(C)C)NC(=O)CNC(=O)[C@H](CO)NC(=O)[C@H](CC(C)C)NC(=O)[C@H](CO)NC(=O)CNC1=O [compound 1386] ({C18 diacid-γGlu-γGlu-γGlu-γGlu}-ARKYKGAQKKGLSSGCFGLPLDRIGSLSGLGC-OH; disulfide 16-32) |  | 0.00605 | 8.16 |  |  |
